Source: publication PMC12860872, “Preclinical evaluation of DOTAGA.Glu.(FAPI)2 and DO3A.Glu.(FAPI)2 as theranostics with human dosimetry extrapolation to lutetium-177 and terbium-161 analogs” (European Journal of Nuclear Medicine and Molecular Imaging, 2025)
Values joined by “and” are separate entries in the source; they are usually repeats but may differ in a detail not shown here. Identical values can stand only once.

How the values were obtained:
PC3-mice = test: Biodistribution in PC3-mice incl. blocking; type: in vivo, mouse; settings: PC3-mice
Method: Male athymic Balb/C nude mice (6 weeks/20–25 g) were implanted with PC3 cells (3.5 × 10^6/100 µL PBS) into their right shoulder to develop tumors. The animals were used for biodistribution and PET/SPECT/CT imaging studies, once tumors reached 250–300 mm^3.
All mice were euthanized with intraperitoneal injection of pentobarbital (150 mg/kg), and selected organs were dissected, weighed, and measured for radioactivity using a gamma-counter. Results are expressed as % injected activity per gram tissue (% I.A./g), presented as mean ± SD (n = 3–4).

[1] = Blood clearance kinetics in healthy mice; type: in vivo, mouse; settings: i.v., Two-Phase Decay Model
Method: Blood samples were collected from the facial vein at 1, 3, 5, 7, 10, 15, 20, 30, 45, 60, 240, and 1440 min p.i., weighed, and measured for radioactivity using a γ-counter. Results were expressed as % I.A./g of blood and plotted over time. The initial and terminal half-lives were determined using Two-Phase Decay Model. The biological half-lives of selected organs were calculated from the biodistribution data using One-Phase Decay Model (GraphPad Prism 8).

FAP+ CAFs = test: Externalization from CAFs; type: cell-based, human; settings: after 24 h at 37 °C
Method: For receptor saturation studies, FAP^+ CAFs were incubated with 0.1 to 10 nM of the radioligands. For internalization studies, approximately 2.5 pmol of the radioligands were added to CAFs followed by incubation for 15, 30, 60, 90, 120, 180 and 240 min for the ^68Ga-labeled or 30, 60, 120, 240 and 360 min for the ^177Lu-labeled radioligands at 37 °C, 5% CO2. For the externalization studies, approximately 2.5 pmol of the ^177Lu-labeled radioligands were added to CAFs followed by incubation for 2 h at 37 °C, 5% CO2. The amount of externalized activity was measured at 0, 10, 20, 30, 60, 120, 240, and 1440 min (Supplemental Data).
After the completion of the 2 hours of incubation, the medium was removed and CAF cells were washed with 1 mL of cold PBS (x2). The cells were then exposed to an acid wash with glycine buffer, as described above, to dissociate membrane-bound radioligand, and the fractions were collected. Fresh medium (1 mL/well) was added to the cells and were incubated at 37 °C. At different time points (10, 20, 30, 60, 120, 240 and 1440 minutes) the external medium was removed (followed by two washing steps with cold PBS). […] The radioactivity of the culture medium, the membrane-bound, the internalized and the externalized fractions were measured in a gamma-counter. The externalized fraction of radioactivity was expressed as the percentage of the total internalized amount.

[2] = Blocking 4h (20 nmol unlabeled precursor)

N#C[C@@H]1CC(F)(F)CN1C(=O)CNC(=O)c1ccnc2ccc(OCCCCNC(=O)CC[C@H](NC(=O)CN3CCN(CC(=O)[O-])CCN(CC(=O)[O-])CCN(CC(=O)[O-])CC3)C(=O)NCCCCOc3ccc4nccc(C(=O)NCC(=O)N5CC(F)(F)C[C@H]5C#N)c4c3)cc12.[177Lu+3] [[^177Lu]Lu-DO3A.Glu.(FAPI)2]
Uptake in Adrenal (PC3-mice; 4 h p.i.): 3.7±1 %I.A./g | Uptake in Blood (PC3-mice; 4 h p.i.): 2.3±0.3 %I.A./g | Uptake in Bone (PC3-mice; 4 h p.i.): 5.2±0.2 %I.A./g | Uptake in Heart (PC3-mice; 4 h p.i.): 1.2±0.5 %I.A./g | Uptake in Intestine (PC3-mice; 4 h p.i.): 0.9±0.4 %I.A./g | Uptake in Kidney (PC3-mice; 4 h p.i.): 1.5±0.4 %I.A./g | Uptake in Liver (PC3-mice; 4 h p.i.): 1.7±0.1 %I.A./g | Uptake in Lung (PC3-mice; 4 h p.i.): 1.6±0.02 %I.A./g | Uptake in Muscle (PC3-mice; 4 h p.i.): 1.9±0.3 %I.A./g | Uptake in Pancreas (PC3-mice; 4 h p.i.): 2.3±0.4 %I.A./g | Uptake in Salivary glands (PC3-mice; 4 h p.i.): 8.2±1.3 %I.A./g | Uptake in Spleen (PC3-mice; 4 h p.i.): 1.2±0.1 %I.A./g | Uptake in Stomach (PC3-mice; 4 h p.i.): 0.9±0.2 %I.A./g | Uptake in Tumor (PC3-mice; 4 h p.i.): 15±1.3 %I.A./g | Uptake in Adrenal (PC3-mice; 24 h p.i.): 1.5±0.2 %I.A./g | Uptake in Blood (PC3-mice; 24 h p.i.): 0.9±0.1 %I.A./g | Uptake in Bone (PC3-mice; 24 h p.i.): 2±0.1 %I.A./g | Uptake in Gallbladder (PC3-mice; 24 h p.i.): 1.3±0.03 %I.A./g | Uptake in Heart (PC3-mice; 24 h p.i.): 0.4±0.03 %I.A./g | Uptake in Intestine (PC3-mice; 24 h p.i.): 0.4±0.1 %I.A./g | Uptake in Kidney (PC3-mice; 24 h p.i.): 0.9±0.1 %I.A./g | Uptake in Liver (PC3-mice; 24 h p.i.): 1.7±0.2 %I.A./g | Uptake in Lung (PC3-mice; 24 h p.i.): 0.6±0.03 %I.A./g | Uptake in Muscle (PC3-mice; 24 h p.i.): 1±0.1 %I.A./g | Uptake in Pancreas (PC3-mice; 24 h p.i.): 1±0.05 %I.A./g | Uptake in Salivary glands (PC3-mice; 24 h p.i.): 3.9±0.3 %I.A./g | Uptake in Spleen (PC3-mice; 24 h p.i.): 0.8±0.05 %I.A./g | Uptake in Stomach (PC3-mice; 24 h p.i.): 0.4±0.03 %I.A./g | Uptake in Tumor (PC3-mice; 24 h p.i.): 7.5±1.2 %I.A./g | Uptake in Adrenal (PC3-mice; 48 h p.i.): 1.1±0.5 %I.A./g | Uptake in Blood (PC3-mice; 48 h p.i.): 0.2±0.03 %I.A./g | Uptake in Bone (PC3-mice; 48 h p.i.): 1±0.1 %I.A./g | Uptake in Gallbladder (PC3-mice; 48 h p.i.): 0.6±0.1 %I.A./g | Uptake in Heart (PC3-mice; 48 h p.i.): 0.1±0.01 %I.A./g | Uptake in Intestine (PC3-mice; 48 h p.i.): 0.1±0.04 %I.A./g | Uptake in Kidney (PC3-mice; 48 h p.i.): 0.4±0.1 %I.A./g | Uptake in Liver (PC3-mice; 48 h p.i.): 1.1±0.2 %I.A./g | Uptake in Lung (PC3-mice; 48 h p.i.): 0.2±0.1 %I.A./g | Uptake in Muscle (PC3-mice; 48 h p.i.): 0.4±0.04 %I.A./g | Uptake in Pancreas (PC3-mice; 48 h p.i.): 0.3±0.01 %I.A./g | Uptake in Salivary glands (PC3-mice; 48 h p.i.): 1.1±0.3 %I.A./g | Uptake in Spleen (PC3-mice; 48 h p.i.): 0.5±0.05 %I.A./g | Uptake in Stomach (PC3-mice; 48 h p.i.): 0.2±0.05 %I.A./g | Uptake in Tumor (PC3-mice; 48 h p.i.): 3.1 ± 0.5 %I.A./g | Uptake in Adrenal (PC3-mice; 72 h p.i.): 0.3±0.1 %I.A./g | Uptake in Blood (PC3-mice; 72 h p.i.): 0.06±0 %I.A./g | Uptake in Bone (PC3-mice; 72 h p.i.): 0.4±0.005 %I.A./g | Uptake in Gallbladder (PC3-mice; 72 h p.i.): 0.4±0.2 %I.A./g | Uptake in Heart (PC3-mice; 72 h p.i.): 0.04±0.01 %I.A./g | Uptake in Intestine (PC3-mice; 72 h p.i.): 0.05±0.01 %I.A./g | Uptake in Kidney (PC3-mice; 72 h p.i.): 0.2±0.02 %I.A./g | Uptake in Liver (PC3-mice; 72 h p.i.): 0.8±0.1 %I.A./g | Uptake in Lung (PC3-mice; 72 h p.i.): 0.1±0.01 %I.A./g | Uptake in Muscle (PC3-mice; 72 h p.i.): 0.1±0.01 %I.A./g | Uptake in Pancreas (PC3-mice; 72 h p.i.): 0.1±0.02 %I.A./g | Uptake in Salivary glands (PC3-mice; 72 h p.i.): 0.3±0.1 %I.A./g | Uptake in Spleen (PC3-mice; 72 h p.i.): 0.3±0.04 %I.A./g | Uptake in Stomach (PC3-mice; 72 h p.i.): 0.05±0 %I.A./g | Uptake in Tumor (PC3-mice; 72 h p.i.): 1.4±0.1 %I.A./g | Uptake in Adrenal (PC3-mice; 96 h p.i.): 0.2±0.1 %I.A./g | Uptake in Blood (PC3-mice; 96 h p.i.): 0.02±0.01 %I.A./g | Uptake in Bone (PC3-mice; 96 h p.i.): 0.3±0.1 %I.A./g | Uptake in Gallbladder (PC3-mice; 96 h p.i.): 0.1±0.02 %I.A./g | Uptake in Heart (PC3-mice; 96 h p.i.): 0.02±0.01 %I.A./g | Uptake in Intestine (PC3-mice; 96 h p.i.): 0.02±0.01 %I.A./g | Uptake in Kidney (PC3-mice; 96 h p.i.): 0.1±0.01 %I.A./g | Uptake in Liver (PC3-mice; 96 h p.i.): 0.7±0.1 %I.A./g | Uptake in Lung (PC3-mice; 96 h p.i.): 0.1±0.1 %I.A./g | Uptake in Muscle (PC3-mice; 96 h p.i.): 0.04±0 %I.A./g | Uptake in Pancreas (PC3-mice; 96 h p.i.): 0.03±0.01 %I.A./g | Uptake in Salivary glands (PC3-mice; 96 h p.i.): 0.1±0.03 %I.A./g | Uptake in Spleen (PC3-mice; 96 h p.i.): 0.4±0.05 %I.A./g | Uptake in Stomach (PC3-mice; 96 h p.i.): 0.03±0.01 %I.A./g | Uptake in Tumor (PC3-mice; 96 h p.i.): 1±0.03 %I.A./g | Uptake in Adrenal (PC3-mice; [2]): 0.3±0.04 %I.A./g | Uptake in Blood (PC3-mice; [2]): 0.2±0.04 %I.A./g | Uptake in Bone (PC3-mice; [2]): 0.4±0.1 %I.A./g | Uptake in Heart (PC3-mice; [2]): 0.1±0.01 %I.A./g | Uptake in Intestine (PC3-mice; [2]): 0.4±0.02 %I.A./g | Uptake in Kidney (PC3-mice; [2]): 2.8±0.2 %I.A./g | Uptake in Liver (PC3-mice; [2]): 1.1±0.01 %I.A./g | Uptake in Lung (PC3-mice; [2]): 0.5±0.1 %I.A./g | Uptake in Muscle (PC3-mice; [2]): 0.1±0.01 %I.A./g | Uptake in Pancreas (PC3-mice; [2]): 0.1±0.01 %I.A./g | Uptake in Salivary glands (PC3-mice; [2]): 0.3±0.01 %I.A./g | Uptake in Spleen (PC3-mice; [2]): 0.4±0.03 %I.A./g | Uptake in Stomach (PC3-mice; [2]): 0.2±0.1 %I.A./g | Uptake in Tumor (PC3-mice; [2]): 1.1±0.4 %I.A./g | tumor uptake (PC3-mice; at 1 h p.i. as printed): ~ 15 %I.A./g | drop of tumor uptake (washed-out) (PC3-mice; at 24 h vs 4 h p.i.): ~ 50% | Blood half life (initial) [1]: 1.3 min | Blood half life (terminal) [1]: 250.3 min and 250 min | initially internalized activity released (FAP+ CAFs): ~ 46%
